{"source": "patent US9353419B2", "about": "“Biomarkers for IAP inhibitor therapy” (Novartis AG, priority 2012, dated 2016)", "key": {"[1]": {"tested_on": "panel of >500 tumor cell lines", "assay": "72 hour proliferation assay, single agent cellular activity against tumor cell line panel", "assay_type": "cell-based", "from_the_text": "We used a statistical framework that integrates pharmacological data together with genetic and mRNA expression data in order to develop biomarkers for predicting response to IAP inhibitors. Using genomic data generated as part of the Cancer Cell Line Encyclopedia collection (Barretina J S, Caponigro G, Stransky N et al (2012) Nature; 483:603-7), we assembled gene copy number, mRNA expression and mutation data into a single matrix. Single agent cellular activity of various IAP antagonists was assessed against a panel of >500 tumor cell lines using a 72 hour proliferation assay. We classified these cell lines into sensitive, intermediate and refractory classes based on the distribution of IC50 data and manual curation of individual responses. A statistical test was applied in order to identify genomic “features” that could differentiate IAP antagonist-sensitive cell lines from refractory lines. Among the top-ranked genes showing differential mRNA expression were TNF and RIPK1, two genes with evidence for apoptotic response to IAP antagonists based on previous experimental studies involving one or a few cell lines. We are thus able to extend prior observations on limited experiments systematically to a large set of data and identified an additional set of seven genes (CXLC10, CCL5, NFKBIA, HERC5, CDYL, STK39 and MAPK14), whose mRNAs were differentially expressed in sensitive compared refractory lines.\nWe built a predictive machine learning model using the Naive Bayes classifier based on the 9-gene signature as well as a 2-gene TNF/RIPK1 signature. […] For example, at model cutoffs optimized to obtain balanced performance between sensitivity and specificity for each model, the signatures yielded response rates of 16-18% in cross-validation compared to 8% response rate at random without any selection. This improved response rate was further validated in independent experimental testing of a compound-naive set of cell lines that were predicted to be sensitive (AUCs in Table 2)."}, "[2]": {"tested_on": "patient-derived tumor models representing triple negative breast cancer, NSCLC and pancreatic cancer", "assay": "single agent activity in patient-derived tumor models (primary human tumors grown as xenografts in mice)", "assay_type": "in vivo", "from_the_text": "In addition, (S)—N—((S)-1-Cyclohexyl-2-{(S)-2-[4-(4-fluoro-benzoyl)-thiazol-2-yl]-pyrrolidin-1-yl}-2-oxo-ethyl)-2-methylamino-propionamide has been tested for single agent activity in 55 patient-derived tumor models representing triple negative breast cancer, NSCLC and pancreatic cancer models."}}, "data": [{"smiles": "CN[C@@H](C)C(=O)N[C@H](C(=O)N1CCC[C@H]1c1nc(C(=O)c2ccc(F)cc2)cs1)C1CCCCC1", "note": "[(S)—N—((S)-1-Cyclohexyl-2-{(S)-2-[4-(4-fluoro-benzoyl)-thiazol-2-yl]-pyrrolidin-1-yl}-2-oxo-ethyl)-2-methylamino-propionamide]", "values": [{"measurement": "cell line response rate", "setting": "[1]; at random, without any selection (\"all-comers\" cell lines)", "value": 8, "unit": "%"}, {"measurement": "increase in response rate compared to random or \"all-comers\" cell lines", "setting": "[1]; at several model cutoff regimes of the predictive signatures", "value": "two- to three-fold"}, {"measurement": "cell line response rate", "setting": "[1]; cell lines selected by gene signatures (2-gene, 9-gene), balanced model cutoffs, cross-validation", "value": "16-18%"}, {"measurement": "single agent activity (range of responses)", "setting": "[2]; 55 patient-derived tumor models", "value": "ranging from tumor regression to no effect"}, {"measurement": "response rate", "setting": "[2]; at random, 55 patient-derived tumor models", "value": 11, "unit": "%"}, {"measurement": "response rate", "setting": "[2]; models selected by 2-gene, 3-gene and 9-gene signatures, balanced model cutoffs", "value": "~30", "unit": "%"}]}]}
